Our source for the IC50 values is patent US6967197B2, “Thiazepinyl hydroxamic acid derivatives as matrix metalloproteinase inhibitors” (Fujisawa Pharmaceutical Co., Ltd., priority 2000, dated 2005).

For this test, the target named is T1, human MMP-9 (Homo sapiens, UniProt P14780).
T1 construct: purchased Yagai, Japan
Put plainly: Inhibitory activity of human MMP-9. It counts as biochemical. The following applies: commercial kit (Yagai, Japan); degradation of FITC-labeled bovine type IV collagen after incubation for 4 hours at 42° C. On the procedure: Inhibitory Activity of Human MMP-9
The inhibitory activity of test compounds against human MMP-9 were measured by using commercial kits (Yagai, Japan). Gelatinolytic activity was determined by monitoring the degradation of FITC-labeled bovine type IV collagen after incubation for 4 hours at 42° C. The amount of degraded collagen was estimated by measuring the fluorescence intensity at 495 nm (excitation) and 520 nm (emission).
Inhibitory activity of human MMP-9 as mentioned above.

T1 sequence (P14780 94-707): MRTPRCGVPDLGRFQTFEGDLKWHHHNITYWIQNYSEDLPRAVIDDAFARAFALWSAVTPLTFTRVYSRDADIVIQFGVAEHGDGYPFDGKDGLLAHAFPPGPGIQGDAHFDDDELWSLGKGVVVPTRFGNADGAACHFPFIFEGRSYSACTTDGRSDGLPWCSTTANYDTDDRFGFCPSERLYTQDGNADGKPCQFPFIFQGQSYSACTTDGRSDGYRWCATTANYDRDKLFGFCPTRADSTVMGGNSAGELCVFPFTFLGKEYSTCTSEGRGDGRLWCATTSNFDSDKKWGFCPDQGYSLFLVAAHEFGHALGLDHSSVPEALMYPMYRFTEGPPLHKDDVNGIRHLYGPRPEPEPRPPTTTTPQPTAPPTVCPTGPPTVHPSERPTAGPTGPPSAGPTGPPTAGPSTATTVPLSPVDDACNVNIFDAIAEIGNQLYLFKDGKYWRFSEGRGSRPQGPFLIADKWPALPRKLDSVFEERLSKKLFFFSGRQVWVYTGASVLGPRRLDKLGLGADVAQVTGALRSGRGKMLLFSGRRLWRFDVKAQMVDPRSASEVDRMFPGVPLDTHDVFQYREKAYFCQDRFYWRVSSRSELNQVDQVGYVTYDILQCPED

What is called IC50 is the concentration that inhibits the measured activity by half. Molecule `COc1ccc(-c2ccc(C3(CC(=O)NO)CCN(S(C)(=O)=O)CCS3(=O)=O)s2)cc1` (stereo not shown) [Example 17, N-hydroxy-2-[7-(5-(4-methoxyphenyl)-2-thienyl)-4-methanesulfonyl-1,1-dioxoperhydro-1,4-thiazepin-7-yl]acetamide] registered a half-inhibitory concentration (IC50) of 2.85 nM.
